Laboratory results from patent US20250177481A1, “SCO-spondin-derived polypeptides for enhancing synaptic transmission” (AXOLTIS PHARMA, priority 2021, published 2025).
Positions of bridges follow the written chain, without caps; N, C: chain ends. No end group written: not given here.

Columns and labels:
[1] = test system: thalamocortical synaptic response (ventrobasal thalamic nucleus to somatosensory cortex); assay: fEPSP input-output (I/O) recordings in thalamocortical mouse brain slices; assay type: cell-based, C57Bl6/J mice; settings: for Normalized fEPSP slope: % of max of vehicle I/O curve, mean of 10 slices
Description: Comparison of postsynaptic responses in control versus NX218 peptide conditions were assessed.
Five (C57Bl6/J) male mice 4-5 weeks-old were obtained from Charles River, France and housed in an animal facility. Animal care was compliant with national and local Ethics committee recommendations. Mice were deeply anesthetized by inhalation of isoflurane then decapitated. The dissected brain was quickly placed in ice-cold oxygenated (95% O2/5% CO2) solution containing 214 mM sucrose, 2.5 mM KCl, 1.25 mM NaH2PO4, 26 mM NaHCO3, 2 mM MgSO4, 2 mM CaCl2 and 10 mM D-glucose.
10 Thalamocortical slices (2 slices per mouse) were prepared as described in Agmon and Connors (1991) and Varela et al. (2013). After its recovery, the brain was placed on a support allowing to elevate the caudal part of the brain until dorsal surface forms a 10-degree angle with the horizontal plane. Then, a section at 55 degrees with respect to the midline was performed and the rostral part was removed. In the slicing chamber, the brain was glued on the sectioned face. Then, the brain was sliced with a thickness of 400 μm. Slices were immediately transferred to a holding chamber filled with an artificial cerebrospinal fluid (aCSF) composed by 124 mM NaCl, 2.5 mM KCl, 1.25 mM NaH2PO4, 26 mM NaHCO3, 2 mM MgSO4, 2 mM CaCl2 and 10 mM D-glucose. The holding chamber was continuously oxygenated and maintained at 35° C. After a recovery period of 30 min, slices were incubated at room temperature for a minimum of 30 min.
For electrophysiological recordings, a single slice was placed in the recording chamber (room temperature) submerged and continuously superfused at a constant rate (2 mL/min) with gassed (95% O2, 5% CO2) aCSF for the reminder of the experiment.
A bipolar tungsten stimulating electrode was placed in the ventrobasal nucleus of the thalamus (the ventrobasal nucleus of the thalamus contains mostly glutamatergic neurons and few GABAergic interneurons) and extracellular field potential was recorded in the somatosensory cortex using a glass microelectrode.
Synaptic transmission Input/Output (I/O) curves were constructed to assess changes in the synaptic transmission, using a range of stimulus intensities from 0 μA to 850 μA with 50 μA intervals. Increasing stimulation intensities results in a linear increase until a maximal plateau in vehicle conditions.
Signals were amplified with an Axopatch 200B amplifier (Molecular Devices, Union City, CA) digitized by a Digidata 1322A interface (Axon Instruments, Molecular Devices, US) and sampled at 10 kHz. Recordings were acquired using Clampex (Molecular Devices) and analyzed with Clampfit (Molecular Devices). Experimenters were blinded to treatment groups for all experiments.
NX218 or vehicle was delivered in the thalamic radiations region by fast focal perfusion. The system consists of syringes containing the respective solutions with tubing lines fusing to a low dead-volume manifold mounted to a micromanipulator. The tip (300-μm diameter) mounted to the manifold was located within a desired distance of less than 1 mm of the target region, with a flow rates of approximately 0.2 mL/min. Tubing lines were controlled by electrical pinch valves which were opened and closed by transistor-transistor logic signals sent out from the DigiData system and parameters set in the perfusion and recording protocol in Clampex 10.3.
Data were analyzed by measuring the slope of individual fEPSPs by linear fitting using Clampfit. The slope of fEPSPs was plotted against different intensities of stimulation (from 0 to 850 μA).

[2] = test system: scopolamine-induced spatial short-term working memory deficits in mice; assay: Y-maze spontaneous alternation in the scopolamine mouse model of amnesia; assay type: in vivo, Swiss mice
Description: Male Swiss mice, weighing 30-35 g, from JANVIER (Saint Berthevin, France), were housed in groups with access to food and water ad libitum, except during behavioral experiments. They were kept in a temperature and humidity-controlled animal facility on a 12 h/12 h light/dark cycle (lights off at 07:[…]). Mice were numbered by marking their tail with permanent markers. All animal procedures were conducted in strict adherence to the European Union directive of Sep. 22, 2010 (2010/63/UE). In each cage (n=6 per cage), treatment regimen was the same. Animals were tested in a random and blind manner.
Donepezil (DPZ) used as positive control was administered per os at a dose of 1 mg/kg once 1 h before the YM test.
Scopolamine was administered at a dose of 0.5 mg/kg by subcutaneous injection 30 minutes before the YM session.
After administration of compounds at different timepoints all animals were tested for spontaneous alternation performance in the YM, an index of spatial working memory. The YM was designed according to Itoh and collaborators (1993) and Hiramatsu and Inoue (1999) and is made of grey polyvinylchloride. Each arm is 40-cm long, 13-cm high, 3-cm wide at the bottom, 10-cm wide at the top, and converging at an equal angle. Each mouse was placed at the end of one arm and allowed to move freely through the maze during an 8-min session. The series of arm entries, including possible returns into the same arm, were checked visually. An alternation was defined as entries into all three arms on consecutive occasions. The number of maximum alternations is therefore the total number of arm entries minus two and the percentage of alternation was calculated as (actual alternations/maximum alternations)×100. Parameters included the percentage of alternation, called memory index, and total number of arm entries, called exploration index (Maurice et al., 1996, 1988; Meunier et al., 2006; Villard et al., 2009, 2011).
Animals showing an extreme behavior (alternation percentage <20% or >90% or number of arm entries <10) would have been discarded from the calculation. No animal was discarded accordingly.

Substance: W-S-G-W-S-S-C-S-R-S-C-G [NX218] (WSGWSSCSRSCG; disulfide 7-11 (inferred))
- change of fEPSP slope vs vehicle alone (whole I/O curve) ([1]; particularly for stimulation intensities from 150 to 450 μA): significant increase
- Normalized fEPSP slope ([1]; stimulation intensity 0 µA): 0.37%
- Normalized fEPSP slope ([1]; stimulation intensity 50 µA): 26.12%
- Normalized fEPSP slope ([1]; stimulation intensity 100 µA): 54.34%
- Normalized fEPSP slope ([1]; stimulation intensity 150 µA): 87.31%
- Normalized fEPSP slope ([1]; stimulation intensity 200 µA): 99.95%
- Normalized fEPSP slope ([1]; stimulation intensity 250 µA): 107.48%
- Normalized fEPSP slope ([1]; stimulation intensity 300 µA): 111.20%
- Normalized fEPSP slope ([1]; stimulation intensity 350 µA): 118.22%
- Normalized fEPSP slope ([1]; stimulation intensity 400 µA): 118.91%
- Normalized fEPSP slope ([1]; stimulation intensity 450 µA): 121.63%
- Normalized fEPSP slope ([1]; stimulation intensity 500 µA): 121.16%
- Normalized fEPSP slope ([1]; stimulation intensity 550 µA): 122.81%
- Normalized fEPSP slope ([1]; stimulation intensity 600 µA): 121.42%
- Normalized fEPSP slope ([1]; stimulation intensity 650 µA): 124.24%
- Normalized fEPSP slope ([1]; stimulation intensity 700 µA): 124.14%
- Normalized fEPSP slope ([1]; stimulation intensity 750 µA): 121.65%
- Normalized fEPSP slope ([1]; stimulation intensity 800 µA): 120.97%
- Normalized fEPSP slope ([1]; stimulation intensity 850 µA): 121.41%
- effect on scopolamine-induced spatial short-term working memory impairments (Y-maze) ([2]; 2.5 mg/kg i.p. (lowest tested dose) 24 h before the test): efficacy was already demonstrated
- effect on scopolamine-induced spatial short-term working memory impairments (Y-maze) ([2]; 5 mg/kg i.p. 2 h before the test, data not shown): only partial
- effect on scopolamine-induced spatial short-term working memory impairments (Y-maze) ([2]; 5 mg/kg i.p. 24 h before the test, data not shown): complete reversal effect
- effect on scopolamine-induced spatial short-term working memory impairments (Y-maze) ([2]; 5 mg/kg i.p. 48 h before the test, data not shown): partially blocked
- effect on scopolamine-induced spatial short-term working memory impairments (Y-maze) ([2]; 10 mg/kg i.p. 48 h before the test, data not shown): completely counteracted
- effect on scopolamine-induced spatial short-term working memory impairments (Y-maze) ([2]; 15 mg/kg i.p. once 48 h before the test, data not shown): partially blocked
- dose with maximum effect on scopolamine-induced memory impairments (Y-maze) ([2]; i.p. once 24 h before the test, bell-shaped dose-response curve): 10 mg/kg
- spontaneous alternance in Y-maze ([2]; scopolamine + 10 mg/kg i.p. 24 h before test, scopolamine alone 45, control 70, n=6, 10 mg/kg): 71%
